The assay concerns the target human ACC2 (Homo sapiens (Human), UniProt O00763). Nature of the assay: ACC2 assay, spectrophotometric 384 well assay (NADH-linked, coupled lactate dehydrogenase/pyruvate kinase reaction). Type of assay: biochemical. The note with it: hACC2 construct lacking the 128 N-terminal amino acids; 25° C., 340 nm, 15 minutes. As to the method:
Spectrophotometric 384 Well Assay
Malonyl CoA formation by acetyl CoA carboxylases is stoichometrically linked to the consumption of ATP. ACC2 activity is measured in a NADH-linked kinetic method measuring ADP generated during the ACC reaction using a coupled lactate dehydrogenase/pyruvate kinase reaction.
For biological testing, a human ACC2 construct which lacks the 128 amino acids at the N-terminus for increased solubility (nt 385-6966 in Genbank entry AJ575592) is cloned. The protein is then expressed in insect cells using a baculoviral expression system. Protein purification is performed by anion exchange.
All compounds are dissolved in dimethyl sulfoxide (DMSO) to a concentration of 10 mM.
Assay reactions are then carried out in 384-well plates, with hACC2 in an appropriate dilution and at final assay concentrations (f.c.) of 100 mM Tris (pH 7.5), 10 mM trisodium citrate, 25 mM KHCC3, 10 mM MgCl2, 0.5 mg/ml BSA, 3.75 mM reduced L-glutathione, 15 U/ml lactate dehydrogenase, 0.5 mM phosphoenolpyruvate, 15 U/ml pyruvate kinase, compounds at different concentrations at final DMSO concentrations of 1%.
The enzymatic reaction is then started by addition of a mixture of NADH, acetyl Coenzyme A (both 200 μM f.c.) and ATP (500 uM f.c.). The decrease of the optical density (slope S) is then determined at 25° C. at a wavelength of 340 nm over 15 minutes in a spectrophotometric reader.
Each assay microtiter plate contains wells with vehicle instead of compound as controls for the non-inhibited enzyme (100% CTL; ‘HIGH’) and wells without acetyl-CoA as controls for non-specific NADH degradation (0% CTL; ‘LOW’).
The slope S is used for calculation of % CTL=(S(compound)−S(‘LOW’))/(S(‘HIGH’)−S(‘LOW’))*100. Compounds will give values between 100% CTL (no inhibition) and 0% CTL (complete inhibition).
For IC50 value determination, the sample slope in the presence of the test compound after subtraction of the low controls (S(compound)−S(‘LOW’)) are used.
An IC50 value is derived from the compound slopes at different dosages after subtraction of the low controls (S(compound)−S(‘LOW’)) by non-linear regression curve fitting (equation y=(A+((B−A)/(1+((C/x)^D))))).
In the following table the activity expressed as IC50 (μM) of compounds according to the invention is presented wherein the IC50 values are determined in the ACC2 assay as described hereinbefore. The term “Ex.” refers to the example numbers according to the following experimental section.

The results in this text go back to patent US8623860B2, “Azetidine derivatives, pharmaceutical compositions and uses thereof” (Boehringer Ingelheim International GmbH, priority 2011, dated 2014).

Each structure is given as a SMILES string. pIC50: −log10 of the molar value.

Chain of human ACC2 (O00763 129-2458): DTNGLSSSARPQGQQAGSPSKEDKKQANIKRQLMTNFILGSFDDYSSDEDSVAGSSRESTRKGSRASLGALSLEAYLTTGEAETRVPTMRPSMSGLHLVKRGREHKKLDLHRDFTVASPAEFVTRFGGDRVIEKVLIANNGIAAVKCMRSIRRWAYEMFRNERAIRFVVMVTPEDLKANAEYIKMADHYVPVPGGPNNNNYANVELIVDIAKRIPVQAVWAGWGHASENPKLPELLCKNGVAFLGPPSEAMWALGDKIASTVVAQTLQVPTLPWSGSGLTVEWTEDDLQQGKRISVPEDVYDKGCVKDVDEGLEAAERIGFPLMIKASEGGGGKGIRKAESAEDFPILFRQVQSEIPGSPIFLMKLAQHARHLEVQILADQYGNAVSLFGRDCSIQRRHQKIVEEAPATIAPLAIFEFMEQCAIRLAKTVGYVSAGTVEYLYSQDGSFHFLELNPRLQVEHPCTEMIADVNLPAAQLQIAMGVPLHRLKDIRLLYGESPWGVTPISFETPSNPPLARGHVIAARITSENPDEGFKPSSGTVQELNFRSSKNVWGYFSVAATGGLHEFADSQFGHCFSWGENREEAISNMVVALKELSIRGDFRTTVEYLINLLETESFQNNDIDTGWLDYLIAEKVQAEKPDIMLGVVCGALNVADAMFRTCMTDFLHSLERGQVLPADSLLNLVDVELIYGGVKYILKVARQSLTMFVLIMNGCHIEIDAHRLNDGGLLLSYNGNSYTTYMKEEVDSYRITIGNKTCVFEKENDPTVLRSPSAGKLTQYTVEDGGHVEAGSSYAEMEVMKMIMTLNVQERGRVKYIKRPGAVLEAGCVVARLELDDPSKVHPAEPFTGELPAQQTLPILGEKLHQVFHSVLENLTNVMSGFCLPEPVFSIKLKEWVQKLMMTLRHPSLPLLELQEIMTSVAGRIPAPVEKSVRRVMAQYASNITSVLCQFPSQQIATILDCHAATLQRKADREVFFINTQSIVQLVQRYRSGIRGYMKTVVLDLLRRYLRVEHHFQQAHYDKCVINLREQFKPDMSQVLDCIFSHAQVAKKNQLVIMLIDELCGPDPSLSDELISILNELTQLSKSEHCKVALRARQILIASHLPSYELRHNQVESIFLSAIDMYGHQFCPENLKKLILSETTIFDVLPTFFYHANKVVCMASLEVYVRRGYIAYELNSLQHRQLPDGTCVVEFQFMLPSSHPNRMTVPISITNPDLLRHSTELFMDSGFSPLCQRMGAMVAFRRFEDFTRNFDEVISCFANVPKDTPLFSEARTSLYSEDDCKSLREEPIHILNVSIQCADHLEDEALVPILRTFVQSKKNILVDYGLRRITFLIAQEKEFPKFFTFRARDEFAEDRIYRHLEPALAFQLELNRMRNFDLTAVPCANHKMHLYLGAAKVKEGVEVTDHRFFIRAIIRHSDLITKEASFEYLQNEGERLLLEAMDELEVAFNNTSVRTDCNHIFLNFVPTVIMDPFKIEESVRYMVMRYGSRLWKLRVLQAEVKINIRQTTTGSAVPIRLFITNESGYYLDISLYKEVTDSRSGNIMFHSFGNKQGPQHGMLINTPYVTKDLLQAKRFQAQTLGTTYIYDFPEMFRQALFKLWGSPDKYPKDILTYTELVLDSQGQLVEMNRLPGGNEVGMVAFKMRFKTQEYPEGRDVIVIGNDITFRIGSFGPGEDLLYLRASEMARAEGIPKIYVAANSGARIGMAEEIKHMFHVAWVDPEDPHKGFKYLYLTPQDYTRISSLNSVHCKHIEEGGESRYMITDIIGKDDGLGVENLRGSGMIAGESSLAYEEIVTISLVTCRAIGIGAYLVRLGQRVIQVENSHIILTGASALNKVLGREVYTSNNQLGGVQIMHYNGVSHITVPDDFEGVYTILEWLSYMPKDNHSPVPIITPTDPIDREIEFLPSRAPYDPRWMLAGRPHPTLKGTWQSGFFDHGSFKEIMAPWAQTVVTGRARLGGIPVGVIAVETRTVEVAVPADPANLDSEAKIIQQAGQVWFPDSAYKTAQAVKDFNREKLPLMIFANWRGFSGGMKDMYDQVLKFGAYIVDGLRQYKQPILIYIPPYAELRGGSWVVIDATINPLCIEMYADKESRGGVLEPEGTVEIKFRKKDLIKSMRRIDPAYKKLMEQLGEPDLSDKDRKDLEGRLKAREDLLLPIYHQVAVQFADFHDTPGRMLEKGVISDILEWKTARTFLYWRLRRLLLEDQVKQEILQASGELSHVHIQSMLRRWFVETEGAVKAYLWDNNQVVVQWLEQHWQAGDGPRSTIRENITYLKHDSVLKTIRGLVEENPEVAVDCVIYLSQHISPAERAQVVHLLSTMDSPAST

Consider `CC(=O)Nc1ncc(C(=O)N[C@@H](C)c2ccc(C3CN(c4ccc(OCC5CC5)cc4)C3)cc2)s1` [Example 3.49], for which the negative-log IC50 (pIC50) was 5.77.
Molecule `COCC(=O)N[C@@H](C)c1ccc(C2CN(c3ccc(OCC4CC4)cc3)C2)cc1` [Example 3.50] gave a pIC50 of 5.66.
Turning to `C[C@H](NC(=O)CF)c1ccc(C2CN(c3ccc(OCC4CC4)cc3)C2)cc1` [Example 3.89], the pIC50 was 6.26.
`C[C@H](NC(=O)C1(C)CC1)c1ccc(C2CN(c3ccc(OCC4CC4)cc3)C2)cc1` [Example 3.26] showed a negative-log IC50 (pIC50) of 5.62.
Molecule `CC(=O)NC(C)Cc1ccc(C2CN(c3ccc(OCC4CC4)cc3)C2)cc1` (centres unmarked) [Example 1.04] had a pIC50 of 6.20.
`C[C@H](NC(=O)C1CC(F)C1)c1ccc(C2CN(c3ccc(OCC4CC4)cc3)C2)cc1` (some centres unmarked) [Example 3.37]: the pIC50 was 5.93.
With `C[C@H](NC(=O)C(F)F)c1ccc(C2CN(c3ccc(OCC4CC4)cc3)C2)cc1` [Example 3.85], the pIC50 was 6.44.
`CC(=O)Nc1cc(C(=O)N[C@@H](C)c2ccc(C3CN(c4ccc5c(c4)OCCO5)C3)cc2)ccn1` [Example 3.69]: the negative logarithm of the IC50 (pIC50) is 5.62.
Then `CC(=O)Nc1nc(C)c(C(=O)N[C@@H](C)c2ccc(C3CN(c4ccc5c(c4)OCCO5)C3)cc2)s1` [Example 3.72], with 5.71; and `CC(=O)N[C@@H](C)c1ccc(C2CN(c3ccc4c(c3)OCCO4)C2)cc1` [Example 1.27], with 6.77.
Molecule `CC(=O)NC(C)CCc1ccc(C2CN(c3cccc(OC(C)C)c3)C2)cc1` (centres unmarked) [Example 1.18] gave a pIC50 of 5.50.
Molecule `CC(=O)N[C@@H](C)c1ccc(C2CN(c3ccnc(N(C)CC(F)F)n3)C2)cc1` [Example 4.1, (S)—N-(1-(4-(1-(2-((2,2-difluoroethyl)(methyl)amino)pyrimidin-4-yl)azetidin-3-yl)phenyl)ethyl)acetamide] gave a negative-log IC50 (pIC50) of 5.74.
Then `CC(=O)NC(C)Cc1ccc(C2CN(c3ccc4ncccc4c3)C2)cc1` (centres unmarked) [Example 1.10], with 5.09; and `CCC(=O)N[C@@H](C)c1ccc(C2CN(c3ccc4c(c3)OCCO4)C2)cc1` [Example 3.68], with 6.00.
The molecule `C[C@H](NC(=O)c1ccns1)c1ccc(C2CN(c3ccc(OCC4CC4)cc3)C2)cc1` [Example 3.39] gave a negative-log IC50 (pIC50) of 5.82.
`CC(=O)N[C@@H](C)c1ccc(C2CN(c3ccc4c(c3)OCCCO4)C2)cc1` [Example 1.29] showed a pIC50 of 6.11.
`CC(Cc1ccc(C2CN(c3ccc(OCC4CC4)cc3)C2)cc1)NC(=O)C1(C#N)CC1` (centres unmarked) [Example 3.07] showed a negative-log IC50 (pIC50) of 5.59.
Consider `COCCC(=O)N[C@@H](C)c1ccc(C2CN(c3ccc(OCC4CC4)cc3)C2)cc1` [Example 3.30], for which the pIC50 is 5.69.
`C=CCC(=O)NC(C)Cc1ccc(C2CN(c3ccc4c(c3)OCCO4)C2)cc1` (centres unmarked) [Example 3.19] showed a negative-log IC50 (pIC50) of 5.54.
`CC(=O)NC(C)Cc1ccc(C2CN(c3cnc(OC4CCC4)nc3)C2)cc1` (centres unmarked) [Example 1.06] showed a pIC50 of 5.42.
`C#CCCC(=O)N[C@@H](C)c1ccc(C2CN(c3ccc(OCC4CC4)cc3)C2)cc1` [Example 3.53] gave a pIC50 of 5.62.
The molecule `C=CCC(=O)N[C@@H](C)c1ccc(C2CN(c3ccc4c(c3)OCCO4)C2)cc1` [Example 3.66] had a negative logarithm of the IC50 (pIC50) of 6.01.
As to `CCCOc1ncnc(N2CC(c3ccc([C@H](C)NC(C)=O)cc3)C2)c1Cl` [Example 5.4], the pIC50 was 6.17.
For the molecule `C[C@H](NC(=O)c1cnco1)c1ccc(C2CN(c3ccc4c(c3)OCCO4)C2)cc1` [Example 3.44], the pIC50 is 5.95.
`CC(=O)NC(C)Cc1ccc(C2CN(c3ccc(-c4ccc(Cl)cc4)nn3)C2)cc1` (centres unmarked) [Example 2.03] gave a negative-log IC50 (pIC50) of 5.15.
Then `CC(=O)N[C@@H](C)c1ccc(C2CN(c3ccnc(OCC4CC4(F)F)c3F)C2)cc1` (stereo partly drawn) [Example 5.1, N-((1S)-1-(4-(1-(2-((2,2-difluorocyclopropyl)methoxy)-3-fluoropyridin-4-yl)azetidin-3-yl)phenyl)ethyl)acetamide], with 5.84.
